Reference: patent publication US10774071B2, “PD-1/PD-L1 inhibitors” (Gilead Sciences, Inc., priority 2018, dated 2020)

Experiments:
PD-L1 = PD-L1 (Homo sapiens (Human), UniProt Q9NZQ7); assay: PD-L1/PD-L1 dimerization biochemical protein-protein interaction assay (ALPHA); format: binding; details: 0.5 nM His tagged PD-L1 and 0.5 nM FLAG tagged PD-L1, Table 4B, read-out: AC50 PDL1 Dimer 1 nM
PD-1/PD-L1 = PD-1/PD-L1 (Homo sapiens (Human), UniProt Q9NZQ7); assay: PD-1/PD-L1 biochemical protein-protein interaction assay (ALPHA); format: binding; details: 0.3 nM His tagged PD-L1, 2.5 nM biotinylated Fc-PD-1, Table 3B, read-out: IC50 PD-L1-PD1
Sequence of PD-1/PD-L1 (Q9NZQ7 19-238): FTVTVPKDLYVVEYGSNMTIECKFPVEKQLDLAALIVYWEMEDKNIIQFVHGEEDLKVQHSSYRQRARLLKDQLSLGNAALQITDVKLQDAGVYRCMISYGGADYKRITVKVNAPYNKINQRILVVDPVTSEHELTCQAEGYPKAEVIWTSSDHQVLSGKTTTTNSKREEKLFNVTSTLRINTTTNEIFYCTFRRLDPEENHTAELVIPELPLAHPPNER

Sequence of PD-L1 (Q9NZQ7 19-238): as above
Sequence of PD-L1 (Q9NZQ7 19-238): as above

SMILES | AC50 (PD-L1) [nM] | IC50 (PD-1/PD-L1) [nM]
COc1nc(-c2cccc(-c3cccc4c3CC[C@@H]4Oc3nc(OC)c(CN4CC[C@@](C)(C(=O)O)C4)cc3C(F)(F)F)c2Cl)ccc1CN[C@H]1C[C@](C)(O)C1 [B-213] | 17 | 0.064
COc1nc(-c2cccc(-c3cccc4c3CC[C@@H]4Oc3nc(OC)c(CN[C@@H](C)C(=O)O)cc3C(F)(F)F)c2Cl)ccc1CN[C@H]1C[C@](C)(O)C1 [B-215] | 8.42 | 0.064
COc1nc(-c2cccc(-c3cc(F)cc4c3CC[C@@H]4Oc3nc(OC)c(CN4CC5(C(=O)O)CCC4CC5)cc3C(F)(F)F)c2Cl)ccc1CNC[C@@H]1CCC(=O)N1 [B-216] | 20.1 | 0.064
COc1nc(-c2cccc(-c3cc(F)cc4c3CC[C@@H]4Oc3nc(OC)c(CN4CC[C@@H](C(=O)O)C4)cc3C(F)(F)F)c2Cl)ccc1CNC[C@@H]1CCC(=O)N1 [B-217] | 28.9 | 0.064
COc1cc(O[C@H]2CCc3c(-c4cccc(-c5ccc(CNC[C@@H]6CCC(=O)N6)c(OC)n5)c4Cl)cccc32)c(C(F)(F)F)cc1CN1CC[C@@](C)(C(=O)O)C1 [B-218] | 17.3 | 0.064
COc1cc(O[C@H]2CCc3c(-c4cccc(-c5ccc(CNC[C@@H]6CCC(=O)N6)c(OC)n5)c4Cl)cccc32)c(C(F)(F)F)cc1CNC(C)(C)C(=O)O [B-219] | 2.56 | 0.064
COc1cc(O[C@H]2CCc3c(-c4cccc(-c5ccc(CNC[C@@H]6CCC(=O)N6)c(OC)n5)c4Cl)cccc32)c(C(F)(F)F)cc1CNC1(C(=O)O)CC1 [B-220] | 2.04 | 0.064
COc1cc(O[C@H]2CCc3c(-c4cccc(-c5ccc(CNC[C@@H]6CCC(=O)N6)c(OC)n5)c4Cl)cccc32)c(C(F)(F)F)cc1CNCC(C)(C)C(=O)O [B-221] | 17.5 | 0.064
COc1cc(O[C@H]2CCc3c(-c4cccc(-c5ccc(CNC[C@@H]6CCC(=O)N6)c(OC)n5)c4Cl)cccc32)c(C(F)(F)F)cc1CNC[C@@H](O)CC(=O)O [B-222] | 13.5 | 0.064
COc1cc(O[C@H]2CCc3c(-c4cccc(-c5ccc(CNC[C@@H]6CCC(=O)N6)c(OC)n5)c4Cl)cccc32)c(C(F)(F)F)cc1CN1CCC[C@@]1(C)C(=O)O [B-223] | 18 | 0.064
COc1cc(O[C@H]2CCc3c(-c4cccc(-c5ccc(CNC[C@@H]6CCC(=O)N6)c(OC)n5)c4Cl)cccc32)c(C(F)(F)F)cc1CN1CC2CCC1C(C(=O)O)C2 (stereo partly shown) [B-224] | 10.6 | 0.064
COc1nc(O[C@H]2CCc3c(-c4cccc(-c5cnc(CNC[C@@H]6CCC(=O)N6)c(OC)n5)c4Cl)cccc32)c(C(F)(F)F)cc1CNC1(C(=O)O)CC1 [B-225] | 5.32 | 0.064
COc1nc(-c2cccc(-c3cccc4c3CC[C@@H]4Oc3nc(OC)c(CN4CC5CCC4(C(=O)O)CC5)cc3C(F)(F)F)c2Cl)ccc1CN1CC2(CCC(=O)N2)C1 [B-226] | 5.33 | 0.064
COc1nc(-c2cccc(-c3cccc4c3CC[C@@H]4Oc3nc(OC)c(CN4C5CCC4(C(=O)O)CC5)cc3C(F)(F)F)c2Cl)ccc1CN1CC2(CCC(=O)N2)C1 [B-227] | 3.12 | 0.064
COc1nc(-c2cccc(-c3cccc4c3CC[C@@H]4Oc3nc(OC)c(CN4CCC5CC4(C(=O)O)C5)cc3C(F)(F)F)c2Cl)ccc1CN1CC2(CCC(=O)N2)C1 [B-228] | 6.43 | 0.064
COc1nc(-c2cccc(-c3cccc4c3CC[C@@H]4Oc3nc(OC)c(CNC4(C(=O)O)CCC4)cc3C(F)(F)F)c2Cl)ccc1CNC[C@@H]1CCC(=O)N1 [B-229] | 3.14 | 0.064
COc1nc(-c2cccc(-c3cccc4c3CC[C@@H]4Oc3nc(OC)c(CN[C@]4(C(=O)O)C[C@H](F)C4)cc3C(F)(F)F)c2Cl)ccc1CNC[C@@H]1CCC(=O)N1 [B-230] | 27.5 | 0.064
COc1nc(-c2cccc(-c3cccc4c3CC[C@@H]4Oc3nc(OC)c(CN4CC5CCC4(C(=O)O)CC5)cc3Cl)c2Cl)ccc1CNC[C@@H]1CCC(=O)N1 [B-231] | 12 | 0.064
COc1nc(-c2cccc(-c3cccc4c3CC[C@@H]4Oc3nc(OC)c(CN4C5CCC4(C(=O)O)CC5)cc3C(F)(F)F)c2Cl)ccc1CNC[C@@H]1CCC(=O)N1 [B-232] | 1.79 | 0.064
COc1nc(-c2cccc(-c3cccc4c3CC[C@@H]4Oc3nc(OC)c(CN4CCC5CC4(C(=O)O)C5)cc3C(F)(F)F)c2Cl)ccc1CNC[C@@H]1CCC(=O)N1 [B-233] | 0.518 | 0.064
COc1nc(-c2cccc(-c3cccc4c3CC[C@@H]4Oc3nc(OC)c(CN4C[C@H]5C[C@H]5[C@H]4C(=O)O)cc3C(F)(F)F)c2Cl)ccc1CNC[C@@H]1CCC(=O)N1 [B-234] | 3.18 | 0.064
CC[C@@](C)(NCc1cc(C(F)(F)F)c(O[C@H]2CCc3c(-c4cccc(-c5ccc(CNC[C@@H]6CCC(=O)N6)c(OC)n5)c4Cl)cccc32)nc1OC)C(=O)O [B-235] | 2.42 | 0.064
CC[C@](C)(NCc1cc(C(F)(F)F)c(O[C@H]2CCc3c(-c4cccc(-c5ccc(CNC[C@@H]6CCC(=O)N6)c(OC)n5)c4Cl)cccc32)nc1OC)C(=O)O [B-236] | 3.02 | 0.064
